Series [1] deals with ABUTH (velvetleaf). The experiment in a line: Greenhouse herbicidal action, postemergence treatment. Type of series: in vivo. As to conditions: 100 = complete destruction, 0 = no damage. The source says:
(§1) The herbicidal action of the 2-phenylpyridazin-3-one compounds of the formula I could be shown by means of greenhouse experiments: […]
(§2) The cultivation containers used were plastic pots containing loamy sand with approximately 3.0% of humus as a substrate. The seeds of the test plants were sown separately according to species.
(§3) For the purpose of postemergence treatment, the test plants were first raised up to a growth height of 3 to 15 cm, depending on growth form, and then treated with the active compounds suspended or emulsified in water. For this, the test plants were either sown directly and raised in the same containers or they were first raised separately as seedlings and transplanted into the experimental containers a few days before the treatment. The application rate for the postemergence treatment was 15.6 or 7.8 g of a.s./ha.
(§4) The plants were kept species-specifically at temperature from 10-25° C. or 20-35° C. The experimental period extended over 2 to 4 weeks. During this time, the plants were tended, and their reaction to the individual treatments was assessed.
(§5) Assessment was carried out on a scale from 0 to 100. 100 here means no emergence of the plants or complete destruction of at least the above-ground parts and 0 means no damage or normal course of growth.
(§6) The plants used in the greenhouse experiments were made up of the following species:
(§7) The compound Ia.4 from Example 1 and the compound of Example 1-637 (X=H), disclosed in WO 97/07104, were tested in the postemergence process in the manner described.

Series [2] concerns GALAP (catchweed). The series is described as above. Type of series: in vivo. The conditions noted are these: 100 = complete destruction, 0 = no damage.
Source text: as §1, §2, §3, §4, §5, §6, §7

For series [3], the system named is IPOSS (morning glory). The description is as above. As to conditions: 100 = complete destruction, 0 = no damage. Type of series: in vivo.
Source text: as §1, §2, §3, §4, §5, §6, §7

The subject of series [4] is BIDPI (hairy beggarticks). The series is described as above. Type of series: in vivo. As to conditions: 100 = complete destruction, 0 = no damage.
Source text: as §1, §2, §3, §4, §5, §6, §7

The subject of series [5] is COMBE (dayflower). The description is as above. As to conditions: 100 = complete destruction, 0 = no damage. Type of series: in vivo.
Source text: as §1, §2, §3, §4, §5, §6, §7

Setting [6] is: application rate 7.8 g/ha (a.s.).
Setting [7] is: application rate 15.6 g/ha (a.s.).

The record followed here is US20030130123A1, “2-Phenyl-2h-pyridazine-3-ones” (priority 2000, published 2003).

As for `CCOC(=O)C(Cl)=Cc1cc(-n2ncc(C(F)(F)F)c(C)c2=O)ccc1Cl` [Ia.4, 2-[4-Chloro-3-(2-ethoxycarbonyl-2-chloroethen-1-yl)phenyl]-4-methyl-5-trifluoromethyl-2H-pyridazin-3-one], the “Herbicidal action, assessment on a scale from 0 to 100” value in series [1] (setting [6]), in series [1] (setting [7]), in series [2] (setting [6]), in series [2] (setting [7]), in series [3] (setting [6]) and in series [3] (setting [7]) was 100 throughout. Also, the “Herbicidal action, assessment on a scale from 0 to 100” value in series [4] (setting [6]) stood at 80; in series [4] (setting [7]), 98; in series [5] (setting [6]), 100; in series [5] (setting [7]), 100.

For the compound `COCCOC(=O)C(Cl)=Cc1cc(-n2ncc(C(F)(F)F)c(C)c2=O)ccc1Cl` [Ia.12, 2-{4-Chloro-3-[2-(2-methoxyethoxy)carbonyl-2-chloroethen-1-yl]phenyl}-4-methyl-5-trifluoromethyl-2H-pyridazin-3-one], the melting point (usually the temperature, or range, at which the solid turns liquid) lay in the range of 60 to 62 °C.

Compound `Cc1c(C(F)(F)F)cnn(-c2ccc(Cl)c(C=C(Cl)C(=O)OCCC#N)c2)c1=O` [Ia.16, 2-{4-Chloro-3-[2-(2-cyanoethoxy)carbonyl-2-chloroethen-1-yl]phenyl}-4-methyl-5-trifluoromethyl-2H-pyridazin-3-one] yielded a melting point of 78 to 79 °C.

Take `C=CCOC(=O)C(Cl)=Cc1cc(-n2ncc(C(F)(F)F)c(C)c2=O)ccc1Cl` [Ia.41, 2-[4-Chloro-3-(2-allyloxycarbonyl-2-chloroethen-1-yl)phenyl]-4-methyl-5-trifluoromethyl-2H-pyridazin-3-one]: the melting point lay in the range of 62 to 63 °C.

The compound `C#CCOC(=O)C(Cl)=Cc1cc(-n2ncc(C(F)(F)F)c(C)c2=O)ccc1Cl` [Ia.42, 2-[4-Chloro-3-(2-propargyloxycarbonyl-2-chloroethen-1-yl)phenyl]-4-methyl-5-trifluoromethyl-2H-pyridazin-3-one] showed a melting point of 81 to 82 °C.
